Key:
hNIS mRNA = hNIS mRNA RT-PCR after polyamine synthesis inhibition; format: cell-based, human; settings: NPA'87 and KAK-1; DFMO 1 or 3 mM, AdoDATO 10 or 30 μM, 6 days; higher doses greater effect
From the text: (§1) hNIS transcriptional failure in thyroid carcinoma could be consequent to methylation of DNA in critical regulatory regions and could be reversed by inhibition of DNA-methyltransferase. Restoration of hNIS gene expression and activity from direct DNA-methyltransferase inhibition by 5-azacytidine has been shown. […] Since dcSAM is consumed by synthesis of polyamines (putrescine, spermidine, spermine) and its synthetic enzyme (adenosylmethionine decarboxylase) is stimulated by polyamine depletion, blockade of polyamine synthesis precipitously increases dcSAM levels. This should block DNA-methyltransferase activity and restore lost hNIS expression in dedifferentiated thyroid carcinomas. To assess this, human thyroid cell lines (NPA'87, papillary carcinoma, & KAK-1, follicular adenoma) without basal expression of hNIS or thyroglobulin (TG) mRNAs, were grown as monolayers in phenol red-free RPMI 1640 with 10% fetal bovine serum. […] Parallel cultures were assessed for Na[^125I] uptake (RAIU) in serum-free buffer, subtracting ^125I counts in buffer with choline (100 mM) to correct for non-specific counts and results normalized for cell density in each condition using thiazolyl blue (MTT) assays. […]

thyroglobulin (TG) mRNA = experiment: Thyroglobulin (TG) mRNA RT-PCR after polyamine synthesis inhibition; format: cell-based, human; settings: NPA'87 and KAK-1; DFMO 1 or 3 mM, AdoDATO 10 or 30 μM, 6 days; higher doses greater effect
From the text: as §1

[1] = test system: thyroid peroxidase (TPO) mRNA; experiment: Thyroid peroxidase (TPO) mRNA RT-PCR after polyamine synthesis inhibition; format: cell-based, human; settings: NPA'87 and KAK-1; minimal basal expression; every dosage
From the text: as §1

NPA'87 cells = experiment: Na[125I] uptake (RAIU) after polyamine synthesis inhibition, NPA'87; format: cell-based, human; settings: DFMO at 3 mM
From the text: as §1

[2] = test system: UCLA RO 82 W-1 (WRO82) cells; settings: UCLA RO 82 W-1 (WRO82) follicular carcinoma cell line; cited from earlier work
[3] = test system: dedifferentiated follicular and papillary thyroid cancers; settings: of 14 patients not concentrating any radioiodine in metastatic tumors at baseline; cited from earlier work
[4] = test system: human thyroid cancer cell lines; settings: several human thyroid cancer cell lines in vitro; cited from earlier work
KAK-1 cells = experiment: Na[125I] uptake (RAIU) after polyamine synthesis inhibition, KAK-1; format: cell-based, human; settings: 30 μM AdoDATO
From the text: as §1

Compound | hNIS mRNA expression (hNIS mRNA) | TG mRNA expression (thyroglobulin (TG) mRNA) | TPO expression [1] | also measured
NCCCC(N)(C(=O)O)C(F)F (stereo not drawn) [DFMO, difluoromethylomithine] | restored | restored | enhancing expression at every dosage | increase in RAIU (NPA'87 cells): > 6 fold
CC1=C(/C=C/C(C)=C/C=C/C(C)=C\C(=O)O)C(C)(C)CCC1 [13cis-retinoic acid] | – | – | – | iodide uptake activity [2]: nominal increase; additional patients gaining "weak" uptake [3]: three; patients re-establishing distinct iodide uptake after treatment [3]: one
gamma interferon: cytokine suggested in the literature to minimally enhance iodide uptake in thyroid cancer cell lines | – | – | – | enhancement of iodide uptake [4]: minimal enhancement
NCCCCC[S+](CCN)CC1OC(n2cnc3c(N)ncnc32)C(O)C1O (stereo not drawn) [AdoDATO, S-adenosyl-1,8-diamino-3-thio-octane] | restored | restored | enhancing expression at every dosage | increase in RAIU (KAK-1 cells): ~5 fold

From US7029879B1, “Iodine uptake restoration in thyroid cancer” (University of Kentucky Research Foundation, priority 1999, dated 2006)
